Here are results for 13 compounds from ChEMBL document CHEMBL1139524, “Decoys for docking” (J Med Chem, 2005).

Each structure is given as a SMILES string.

The target of one test is Endolysin (Enterobacteria phage T4, UniProt P00720, L99A). Further details: species or system Tequatrovirus T4.
By Kd is commonly meant the concentration at which binding is half-saturated. The low end stands for higher affinity, the high end for lower affinity. Compound `CCc1ccc(C)cc1` yielded a Kd of 120 µM.

Compound `CCCc1ccccc1` showed a Kd of 18 µM.

`CCc1cccc(C)c1` came in with a dissociation constant (Kd) of 198 µM.

As for `CCc1ccccc1C`, binding was put at a Kd of 505 µM.

`c1ccc2occc2c1` [BENZOFURAN] came in with a Kd of 112 µM.

In turn, `c1ccc2sccc2c1` [BENZOTHIOPHENE] registered a Kd of 74 µM.

The compound `C1=Cc2ccccc2C1` [INDENE] returned a Kd of 193 µM.

`Cc1cccc(C)c1` [M-XYLENE] came in with a Kd of 364 µM.

The next test deals with Endolysin (Enterobacteria phage T4, UniProt P00720, L99A/M102Q). Nature of the test: Dissociation constant against T4 lysozyme mutant L99A/M102Q. Further details: species or system Tequatrovirus T4.
`Nc1ccccc1F`: the Kd worked out at 100 µM.

`Oc1cccc(Cl)c1` returned a Kd of 56 µM.

`Cc1cc[nH]c1` showed a Kd of 159 µM.

A further test deals with T1, Beta-lactamase (Escherichia coli K-12, UniProt P00811). Nature of the test: Apparent inhibitory constant against beta-lactamase AmpC from Escherichia coli.
T1 sequence (P00811 whole entry): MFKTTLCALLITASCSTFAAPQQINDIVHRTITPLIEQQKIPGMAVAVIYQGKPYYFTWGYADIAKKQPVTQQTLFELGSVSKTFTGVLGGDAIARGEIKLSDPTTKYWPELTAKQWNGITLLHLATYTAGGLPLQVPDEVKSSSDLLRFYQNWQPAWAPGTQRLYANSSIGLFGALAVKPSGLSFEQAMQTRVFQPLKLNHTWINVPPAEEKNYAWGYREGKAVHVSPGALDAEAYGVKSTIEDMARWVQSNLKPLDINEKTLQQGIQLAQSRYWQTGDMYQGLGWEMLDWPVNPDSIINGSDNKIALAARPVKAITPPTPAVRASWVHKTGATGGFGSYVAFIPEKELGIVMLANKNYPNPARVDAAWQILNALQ
Take `NS(=O)(=O)c1ccc(NS(=O)(=O)c2ccsc2C(=O)O)cc1`: the Ki was 93 µM.

For the next test, the target named is T1, Beta-lactamase. The test is described as follows: Inhibitory constant against beta-lactamase AmpC from Escherichia coli.
With `O=C(O)c1sccc1S(=O)(=O)Nc1ccc(Cl)cc1`, the Ki amounted to 26 µM.
